Data on 4 molecules can be found in patent publication US20230348493A1, “COMPOUND FOR ADJUSTING ACTIVITY OF NMDA RECEPTOR, AND PHARMACEUTICAL COMPOSITION AND USE THEREOF” (BEIJING GREATWAY PHARMACEUTICAL TECHNOLOGY CO., LTD., priority 2020, published 2023).

In the first series the target is T1, NMDA receptor (Rattus norvegicus, UniProt P35439).
T1 construct: After the rats were decapitated, the prefrontal cortex and hippocampus were rapidly separated on ice; from tissue; host or cells: SD male rat prefrontal cortex and hippocampus, crude synaptosomes
The series is described as follows: Inhibition of [3H]-MK-801 binding to rat crude synaptosomes (receptor ligand binding assay). As to conditions: affinity on NMDA; [3H]-MK-801 10 nM, rat prefrontal cortex and hippocampus crude synaptosomes; read-out: IC50. The procedure: The affinity of the tested compounds on NMDA receptor was researched by receptor ligand binding assays.
Ten SD male rats of SPF grade were ordered and acclimated for 7 days for future use.
(§1) After the rats were decapitated, the prefrontal cortex and hippocampus were rapidly separated on ice and weighed, 10 volumes of 50 mM Tris-HCl buffer (50 mM Tris-HCl, 5 mM MgCl2·6H2O, 1 mM EDTA, 0.5% (W/V) BSA, 1 mM PMSF, 0.32 M sucrose, pH 7.4) was added, and the mixture was homogenized for five times at 1500 revolutions/min with 30 s each time. A homogenate was centrifuged for 10 min at 1000×g, and a supernatant was taken and centrifuged for 10 min at 40,000×g, the precipitates were collected, re-suspended with volumes of Tris-HCl buffer, incubated at 37° C. for 10 min, and centrifuged for 10 min at 40,000×g, finally the precipitates were re-suspended with the above buffer, aliquoted and stored at −80° C. for later use.
(2) Detection of Inhibitory Function of Tested Medicines on Binding of Crude Synaptosomes in Rats to [^3H]-MK-801
50 μg of rat crude synaptosomal proteins was added to all tubes respectively. A volume of 50 μl of MK-801 (dizocilpine) was added to a non-specific binding tube to achieve a final concentration of 100 μM, and the materials were reacted for 15 min in advance. 20 μL of control drug at corresponding concentration was added to the test tube for reaction for 15 min. A volume of 30 μl of labeled ligand [^3H]-MK-801 was successively added to all tubes to achieve a final concentration of 10 nM. All reaction tubes were supplemented to a volume of 200 μl with 50 mM Tris-HCl buffer (50 mM Tris-HCl, 5 mM MgCl2·6H2O, 1 mM EDTA, 0.5% (WN) BSA, 0.1% NaN3, pH 7.4). A reaction was carried out at 37° C. for 10 min. A type-49 glass fiber filter membrane was prepared and a sample was applied at the same time. The filter membrane was placed in a multi-head cell collector, and a reaction system was subjected to suction filtration under negative pressure and washed with an ice-cold 50 mM Tris-HCl buffer, 10 ml each time, for a total of 5 times. After suction drying, 1 ml of scintillation liquid was added to the filter membrane, the filter membrane was placed on a shaker for shaking for 1.5 h and then placed in a liquid scintillation counter on the next day to determine the radioactive intensity.
GraphPad5.0 software was used to analyze the data, and the percentage of competitive inhibition was calculated through nonlinear fitting, wherein:
Percentage of competitive inhibition %=((total binding tube cpm−compound cpm)/(total binding tube cpm−non-specific binding tube cpm))×100%;
Specific binding amount=total binding amount−non-specific binding amount, wherein each binding site was determined by double compound tubes.
Consider `CC(=O)N1CCSC12CN(C(=O)[C@@H](N)[C@@H](C)O)C2.Cl` [A-066], for which the IC50 was 0.35 nM.
As for `CC(C)C(=O)N1CCSC12CN(C(=O)[C@@H](N)[C@@H](C)O)C2.Cl` [A-098], the IC50 was 0.98 nM.
On to `C[C@@H](O)[C@H](N)C(=O)N1CC2(C1)N[C@H](C(N)=O)CS2.Cl` [A-258], for which the IC50 is 0.33 nM.
In the case of `CC(C)[C@H](N)C(=O)N1CC2(C1)N[C@H](C(N)=O)CS2.Cl` [A-260], the half-inhibitory concentration (IC50) worked out at 0.26 nM.

In the next series the target is T1, NMDA receptor. Put plainly: NMDA receptor agonistic properties in rat crude synaptosomal proteins (maximum [3H]-MK-801 binding vs 1 mM glycine). The series is classed as biochemical. The conditions noted are these: maximum [3H]-MK-801 binding % relative to 1 mM glycine; 50 μM glutamic acid. The procedure: as §1
(3) Detection of Influence of Tested Medicines on NMDA Receptor Agonistic Properties in Rat Crude Synaptosomal Proteins
100 μg of rat crude synaptosomal proteins was added to all tubes respectively. 50 μl of 5,7-dichlorokynurenic acid was added to a non-specific binding tube to achieve a final concentration of 10 μM. All tubes were preloaded with 50 μM of glutamic acid, and the materials were reacted for 15 min in advance. 20 μL of control drug at corresponding concentration was added to the test tube, and then reacted for 15 min. 1 mM glycine was added to the maximum reaction tube. A volume of 30 μl of labeled ligand [^3H]-MK-801 was successively added to all tubes to achieve a final concentration of 10 nM, and reacted for 15 min. All reaction tubes were supplemented to a volume of 500 μl with 50 mM Tris-HCl buffer (50 mM Tris-HCl, 5 mM MgCl2·6H2O, 1 mM EDTA, 0.5% (WN) BSA, 0.1% NaN3, pH 7.4). A reaction was carried out at 37° C. for 15 min. A type-49 glass fiber filter membrane was prepared and a sample was applied at the same time. The filter membrane was placed in a multi-head cell collector, and the reaction system was subjected to suction filtration under negative pressure and washed with an ice-cold 50 mM Tris-HCl buffer, 10 ml each time, for a total of 5 times. After suction drying, 1 ml of scintillation liquid was added to the filter membrane, the filter membrane was placed on the shaker for shaking for 1.5 h and then placed in the liquid scintillation counter on the next day to determine the radioactive intensity.
In an agonistic experiment, maximum [^3H]-MK-801 binding %=((tested compounds cpm−5,7 dichlorokynurenic acid cpm)/(1 mM glycine cpm−5,7 dichlorokynurenic acid cpm))×100%.
Turning to `CC(=O)N1CCSC12CN(C(=O)[C@@H](N)[C@@H](C)O)C2.Cl` [A-066], the “Maximum agonistic efficacy (%)” value was determined as 29%.
For the molecule `CC(C)C(=O)N1CCSC12CN(C(=O)[C@@H](N)[C@@H](C)O)C2.Cl` [A-098], the “Maximum agonistic efficacy (%)” value is recorded as 28%.
Still for that read-out and setting: in the case of `C[C@@H](O)[C@H](N)C(=O)N1CC2(C1)N[C@H](C(N)=O)CS2.Cl` [A-258] it was 21%; in that of `CC(C)[C@H](N)C(=O)N1CC2(C1)N[C@H](C(N)=O)CS2.Cl` [A-260], 26%.

Test system in another series: not listed separately
Put plainly: In-vivo metabolism (pharmacokinetic) study in rats, oral / tail intravenous. The conditions noted are these: male, SD, rat, plasma; oral 10 mg/kg vs intravenous 1 mg/kg, rats. The method, then:
The pharmacokinetic parameters such as exposure of plasma concentrations of the compounds of examples were evaluated by oral/tail intravenous injection model tests in rats in order to evaluate the in-vivo metabolic stability in rats.
The male SD rats weighing 200±20 g and being SPF grade were used in this experiment and purchased from SPF.
Preparation of intravenous solution: 1 mg of each tested medicine was weighed accurately, and a volume was metered to 5 mL with 0.9% sodium chloride solution to prepare 0.2 mg/mL. A dose volume was 1 mL for per 200 g of weight, and the dose was 1 mg for per 1 kg of weight based on the concentration conversion.
Preparation of intragastric solution: 10 mg of each tested medicine was accurately weighed, and a volume was metered to 10 mL with 0.9% sodium chloride solution to prepare 1 mg/mL of the solution. A dose volume was 2 mL for per 200 g of weight, and the dose was 10 mg for per 1 kg of weight based on the concentration conversion.
Rats were randomly divided into 8 groups, 6 rats were in each group, oral gavage administration and tail intravenous administration were performed according to the above doses. About 0.2 mL of orbital blood was collected before administration and at 2 min, 5 min, 15 min, 30 min, 1 h, 2 h, 3 h, 4 h and 6 h after administration, respectively, and centrifuged at 3000 rpm for 10 min at 4° C., and a supernatant was taken for LC/MS/MS determination. A DAS pharmacokinetics program was used to analyze the measured data and calculate the main pharmacokinetic parameters.
On to `CC(=O)N1CCSC12CN(C(=O)[C@@H](N)[C@@H](C)O)C2.Cl` [A-066], for which the bioavailability worked out at 54.5%.
Turning to `CC(C)C(=O)N1CCSC12CN(C(=O)[C@@H](N)[C@@H](C)O)C2.Cl` [A-098], the bioavailability worked out at 19.1%.
Still for that read-out and setting: in the case of `C[C@@H](O)[C@H](N)C(=O)N1CC2(C1)N[C@H](C(N)=O)CS2.Cl` [A-258] it was 27.3%; in that of `CC(C)[C@H](N)C(=O)N1CC2(C1)N[C@H](C(N)=O)CS2.Cl` [A-260], 74.6%.

Still in this series, the particulars now being: rat; Intravenous injection, 1 mg/kg, male SD rats, plasma.
Consider `CC(=O)N1CCSC12CN(C(=O)[C@@H](N)[C@@H](C)O)C2.Cl` [A-066], for which the area under the curve AUC(0-t) turned out to be 1380 ng·h/mL and the maximum concentration (Cmax) is 1690 ng/mL.
Taken in the same sequence, the figures for `CC(C)C(=O)N1CCSC12CN(C(=O)[C@@H](N)[C@@H](C)O)C2.Cl` [A-098] were 952 ng·h/mL and 1090 ng/mL.
`C[C@@H](O)[C@H](N)C(=O)N1CC2(C1)N[C@H](C(N)=O)CS2.Cl` [A-258] yielded an AUC(0-t) of 4180 ng·h/mL and a Cmax of 3630 ng/mL.
`CC(C)[C@H](N)C(=O)N1CC2(C1)N[C@H](C(N)=O)CS2.Cl` [A-260]: the exposure AUC(0-t) was found to be 1450 ng·h/mL and the Cmax stood at 2240 ng/mL.

The same series, now with this note: rat; Oral, 10 mg/kg, male SD rats, plasma.
For the molecule `CC(=O)N1CCSC12CN(C(=O)[C@@H](N)[C@@H](C)O)C2.Cl` [A-066], the exposure AUC(0-t) worked out at 7560 ng·h/mL and the peak concentration (Cmax) is 2080 ng/mL.
For `CC(C)C(=O)N1CCSC12CN(C(=O)[C@@H](N)[C@@H](C)O)C2.Cl` [A-098] the same measures were 1820 ng·h/mL and 767 ng/mL.
For `C[C@@H](O)[C@H](N)C(=O)N1CC2(C1)N[C@H](C(N)=O)CS2.Cl` [A-258] the same measures were 11400 ng·h/mL and 4910 ng/mL.
In turn, `CC(C)[C@H](N)C(=O)N1CC2(C1)N[C@H](C(N)=O)CS2.Cl` [A-260] gave an AUC(0-t) of 10800 ng·h/mL and a Cmax of 6210 ng/mL.

Another series has as its system rats. The series is described as follows: Forced swimming test in rats. The series is classed as in vivo. The conditions noted are these: Rattus norvegicus, 48 h, Po, Day 2, *P<0.05, **P<0.01 compared with the control group, read-out: Reduction percentage (%) of floating time, Day 2. The procedure: Pharmacodynamic evaluation was performed by the forced swimming tests in rats. The experimental animals were male SD rats weighing 150 g-180 g and being SPF grade, and acclimated for one week after purchase, and then subjected to forced swimming tests, the rats need be fasted for 12 hours before the tests. The compounds of examples were dissolved with normal saline, and blank control group (normal saline) and example compound administration group were established. 8-10 rats were provided for each group. On the day before the tests, the rats were placed in a glass cylinder with a height of 40 cm, an inner diameter of 18 cm, and a water depth of 23 cm for pre-swimming for 15 min, and a water temperature was 28° C. After the pre-swimming the rats were removed, wiped with a dry cloth, and dried with an electrical heater, then returned to a rearing cage, and administered. A formal forced swimming test was performed on the next day for a total of 5 min. The accumulated immobility time within 5 min was recorded, and a second forced swimming test was performed on the seventh day; the criteria for determining immobility were that the rats stopped struggling in the water, were in a floating state, and had only slight limb movements to keep the head floating on the water surface. The results are shown in Table 4, and the experimental data were statistically analyzed by GraphPad Prism 5.0 software.
For the molecule `CC(=O)N1CCSC12CN(C(=O)[C@@H](N)[C@@H](C)O)C2.Cl` [A-066], the inhibition in vivo at 0.1 mg/kg stood at 68%.
On the same count and under the same terms, in the case of `CC(C)C(=O)N1CCSC12CN(C(=O)[C@@H](N)[C@@H](C)O)C2.Cl` [A-098] it was 64.5%; in that of `C[C@@H](O)[C@H](N)C(=O)N1CC2(C1)N[C@H](C(N)=O)CS2.Cl` [A-258], 74.8%; in that of `CC(C)[C@H](N)C(=O)N1CC2(C1)N[C@H](C(N)=O)CS2.Cl` [A-260], 31.6%.

The same series, now with this note: Rattus norvegicus, 168 h, Po, Day 7, *P<0.05, **P<0.01 compared with the control group, read-out: Reduction percentage (%) of floating time, Day 7.
Turning to `CC(=O)N1CCSC12CN(C(=O)[C@@H](N)[C@@H](C)O)C2.Cl` [A-066], the inhibition in vivo at 0.1 mg/kg turned out to be 55.3%.
The same measure, in the same setting: in the case of `CC(C)C(=O)N1CCSC12CN(C(=O)[C@@H](N)[C@@H](C)O)C2.Cl` [A-098] it was 13.9%; in that of `C[C@@H](O)[C@H](N)C(=O)N1CC2(C1)N[C@H](C(N)=O)CS2.Cl` [A-258], 56.4%; in that of `CC(C)[C@H](N)C(=O)N1CC2(C1)N[C@H](C(N)=O)CS2.Cl` [A-260], 15.5%.

The IC50 is the midpoint of a concentration-inhibition curve. A word on the bioavailability: it is the share of a dose that reaches the circulation, judged against a reference dose that is usually intravenous. A low value points to little systemic uptake. As a reminder, the AUC(0-t) is the area under the concentration-time curve up to a stated or last time point. Read a high AUC(0-t) as more exposure. Broadly, the Cmax is the maximum level reached in the sampled fluid or tissue.
